Assay [1] has as its target T1, TM6-N4 (Defluviitalea phaphyphila, UniProt A0A4Y5UXE1).
T1 construct: gene Dp0100; TM6-N4 truncation of Dp0100 (187 amino acids, within TM6 segment 1020-1446, without CBM35), His tag, produced in E. coli BL21 (DE3); monomer, Ca2+ in crystal structure
The assay can be described thus: Isothermal titration calorimetry (MicroCal PEAQ-ITC) of 20 uM TM6-N4 with 200 uM oligoalginate in 20 mM Tris-HCl pH 7.0 without NaCl at 25 °C, one-site binding model, triplicate for most ligands. The following applies: SD, n = 3. On the procedure: (§1) To characterize the binding of TM6-N4 to alginate, isothermal titration calorimetry (ITC) experiments were carried out at 25 °C and pH 7.0, with alginate and oligoalginate standards including G3, G4, G5, G6, G7, M3, M5, M6, and M7 as substrate and TM6-N4 as the enzyme. […] Nevertheless, G3 produced a profile of CBM–ligand interaction (Fig. 2A). It is thus likely that the binding sites of TM6-N4 required at least three uronic acid units to yield stable binding complexes. […] These discrepancies may reflect the fact that one alginate chain has accommodated several protein molecules and the fact of the thermodynamic instability of the long alginate chain.
(§2) Figure 2 Thermograms (upper panels) and binding isotherms with theoretical fits (lower panels) obtained for the binding. G3 (A), G4 (B), G5 (C), G6 (D), G7 (E), M3 (F), M5 (G), M6 (H), M7 (I), and alginate (J) to TM6-N4. The buffer used was 20 mM Tris–HCl buffer, pH 7.0. Protein concentration was 20 μM for TM6-N4.
(§3) The proteins were dialyzed extensively against buffer with 20 mM Tris–HCl (pH 7.0) without NaCl and adjusted concentration to 20 μM, and the oligosaccharide ligands (purity ≥95%; Qingdao BZ Oligo Biotech Co Ltd) or alginate ligands (viscosity >0.02 Pa·s, 1% alginate in H2O at 25 °C) were dissolved in the same buffer to minimize heats of dilution with a concentration of 200 μM. To avoid bubble formation, all the samples were degassed by centrifugation at 12,000 rpm/10 min. Calorimetric titration was performed with MicroCal PEAQ-ITC (Malvern Panalytical). During a titration experiment, the protein sample was stirred at a speed of 750 rpm and kept a constant temperature of 25 °C, and the titration needle was filled with 80 μl oligosaccharide or alginate ligand. Titrations were completed after 19 injections (each 3 μl) at an interval of 150 s. The data were analyzed by using the one-site binding model in the MicroCal PEAQ-ITC Analysis software. The fitted data yielded the dissociation constant (Kd), the number of binding sites on the protein (n), and the enthalpy of binding (ΔH). Other thermodynamic parameters can be calculated by using the standard thermodynamic equation ΔG = −RTln Ka = ΔH-TΔS. Titrations were carried out in triplicate for most ligands, and the errors are the SD of the mean of these replicates.

The test system of assay [2] is TM6-N4. The experiment in a line: Isothermal titration calorimetry of alginate and oligoalginate binding to TM6-N4. The arrangement: species or system Defluviitalea phaphyphila. The following applies: ITC, 25 °C, pH 7.0; for TΔS: calculated from ΔG = ΔH-TΔS; for ΔG (binding free energy change): calculated from ΔG = −RTln Ka. On the procedure: as §1, §2, §3

“And” between values parts separate entries of the source, which are not always exact repeats. Equal values may be shown once.

`O=C(O)[C@@H]1O[C@@H](O[C@H]2[C@H](O)[C@H](O)[C@H](O[C@H]3[C@H](O)[C@H](O)C(O)O[C@H]3C(=O)O)O[C@H]2C(=O)O)[C@@H](O)[C@@H](O)[C@@H]1O` (stereo partly drawn) [G3, alpha-L-guluronate trisaccharide (triguluronate)] gave an equilibrium dissociation constant (Kd) at TM6-N4 [1] of 3.1 ± 0.1 µM.

Consider `O=C(O)[C@@H]1O[C@@H](O[C@H]2[C@H](O)[C@H](O)[C@H](O[C@H]3[C@H](O)[C@H](O)C(O)O[C@H]3C(=O)O)O[C@H]2C(=O)O)[C@@H](O)[C@@H](O)[C@@H]1O` (some centres unmarked) [G3], for which, in the assay with TM6-N4 [2], the ΔH was -15.1 ± 3.3 kcal/mol; the TΔS was -7.6 kcal/mol; the “ΔG (binding free energy change)” value was -7.5 kcal/mol and -7.5 ± 0.1 kcal/mol.

At TM6-N4 [1], `O=C(O)[C@@H]1O[C@@H](O[C@H]2[C@H](O)[C@H](O)[C@H](O[C@H]3[C@H](O)[C@H](O)[C@H](O[C@H]4[C@H](O)[C@H](O)C(O)O[C@H]4C(=O)O)O[C@H]3C(=O)O)O[C@H]2C(=O)O)[C@@H](O)[C@@H](O)[C@@H]1O` (stereo partly drawn) [G4, alpha-L-guluronate tetrasaccharide (tetraguluronate)] yielded a dissociation constant Kd of 0.6 ± 0.1 µM.

For the compound `O=C(O)[C@@H]1O[C@@H](O[C@H]2[C@H](O)[C@H](O)[C@H](O[C@H]3[C@H](O)[C@H](O)[C@H](O[C@H]4[C@H](O)[C@H](O)C(O)O[C@H]4C(=O)O)O[C@H]3C(=O)O)O[C@H]2C(=O)O)[C@@H](O)[C@@H](O)[C@@H]1O` (some centres unmarked) [G4], in the assay with TM6-N4 [2], the ΔH was -7.3 ± 0.2 kcal/mol; the TΔS was 1.1 kcal/mol; the “ΔG (binding free energy change)” value is -8.4 kcal/mol and -8.4 ± 0.1 kcal/mol.

At TM6-N4 [1], `O=C(O)[C@@H]1O[C@@H](O[C@H]2[C@H](O)[C@H](O)[C@H](O[C@H]3[C@H](O)[C@H](O)[C@H](O[C@H]4[C@H](O)[C@H](O)[C@H](O[C@H]5[C@H](O)[C@H](O)C(O)O[C@H]5C(=O)O)O[C@H]4C(=O)O)O[C@H]3C(=O)O)O[C@H]2C(=O)O)[C@@H](O)[C@@H](O)[C@@H]1O` (stereo partly drawn) [G5, alpha-L-guluronate pentasaccharide (pentaguluronate)] returned a dissociation constant (Kd) of 0.5 ± 0.1 µM.

`O=C(O)[C@@H]1O[C@@H](O[C@H]2[C@H](O)[C@H](O)[C@H](O[C@H]3[C@H](O)[C@H](O)[C@H](O[C@H]4[C@H](O)[C@H](O)[C@H](O[C@H]5[C@H](O)[C@H](O)C(O)O[C@H]5C(=O)O)O[C@H]4C(=O)O)O[C@H]3C(=O)O)O[C@H]2C(=O)O)[C@@H](O)[C@@H](O)[C@@H]1O` (some centres unmarked) [G5]: in the assay with TM6-N4 [2], the ΔH is -12.3 ± 0.4 kcal/mol; the TΔS is -3.6 kcal/mol; the “ΔG (binding free energy change)” value was -8.6 kcal/mol and -8.6 ± 0.1 kcal/mol.

`O=C(O)[C@@H]1O[C@@H](O[C@H]2[C@H](O)[C@H](O)[C@H](O[C@H]3[C@H](O)[C@H](O)[C@H](O[C@H]4[C@H](O)[C@H](O)[C@H](O[C@H]5[C@H](O)[C@H](O)[C@H](O[C@H]6[C@H](O)[C@H](O)C(O)O[C@H]6C(=O)O)O[C@H]5C(=O)O)O[C@H]4C(=O)O)O[C@H]3C(=O)O)O[C@H]2C(=O)O)[C@@H](O)[C@@H](O)[C@@H]1O` (stereo partly drawn) [G6, alpha-L-guluronate hexasaccharide (hexaguluronate)] returned an equilibrium dissociation constant (Kd) on TM6-N4 [1] of 0.02 ± 0.02 µM.

On to `O=C(O)[C@@H]1O[C@@H](O[C@H]2[C@H](O)[C@H](O)[C@H](O[C@H]3[C@H](O)[C@H](O)[C@H](O[C@H]4[C@H](O)[C@H](O)[C@H](O[C@H]5[C@H](O)[C@H](O)[C@H](O[C@H]6[C@H](O)[C@H](O)C(O)O[C@H]6C(=O)O)O[C@H]5C(=O)O)O[C@H]4C(=O)O)O[C@H]3C(=O)O)O[C@H]2C(=O)O)[C@@H](O)[C@@H](O)[C@@H]1O` (some centres unmarked) [G6], for which, in the assay with TM6-N4 [2], the ΔH was -8.6 ± 0.4 kcal/mol; the TΔS is listed as 1.9 kcal/mol; the “ΔG (binding free energy change)” value was -10.5 kcal/mol and -10.5 ± 0.1 kcal/mol.

On TM6-N4 [1], `O=C(O)[C@@H]1O[C@@H](O[C@H]2[C@H](O)[C@H](O)[C@H](O[C@H]3[C@H](O)[C@H](O)[C@H](O[C@H]4[C@H](O)[C@H](O)[C@H](O[C@H]5[C@H](O)[C@H](O)[C@H](O[C@H]6[C@H](O)[C@H](O)[C@H](O[C@H]7[C@H](O)[C@H](O)C(O)O[C@H]7C(=O)O)O[C@H]6C(=O)O)O[C@H]5C(=O)O)O[C@H]4C(=O)O)O[C@H]3C(=O)O)O[C@H]2C(=O)O)[C@@H](O)[C@@H](O)[C@@H]1O` (stereo partly drawn) [G7, alpha-L-guluronate heptasaccharide (heptaguluronate)] gave a dissociation constant (Kd) of 0.3 ± 0.07 µM.

In the case of `O=C(O)[C@@H]1O[C@@H](O[C@H]2[C@H](O)[C@H](O)[C@H](O[C@H]3[C@H](O)[C@H](O)[C@H](O[C@H]4[C@H](O)[C@H](O)[C@H](O[C@H]5[C@H](O)[C@H](O)[C@H](O[C@H]6[C@H](O)[C@H](O)[C@H](O[C@H]7[C@H](O)[C@H](O)C(O)O[C@H]7C(=O)O)O[C@H]6C(=O)O)O[C@H]5C(=O)O)O[C@H]4C(=O)O)O[C@H]3C(=O)O)O[C@H]2C(=O)O)[C@@H](O)[C@@H](O)[C@@H]1O` (some centres unmarked) [G7], in the assay on TM6-N4 [2], the ΔH was -14.2 ± 0.4 kcal/mol; the TΔS was -5.4 kcal/mol; the “ΔG (binding free energy change)” value was -8.9 kcal/mol and -8.9 ± 0.1 kcal/mol.

Take `O=C(O)[C@H]1O[C@@H](O[C@H]2[C@H](O)[C@H](O)[C@H](O[C@H]3[C@H](O)[C@H](O)[C@H](O[C@H]4[C@H](O)[C@H](O)[C@H](O[C@H]5[C@H](O)[C@H](O)C(O)O[C@@H]5C(=O)O)O[C@@H]4C(=O)O)O[C@@H]3C(=O)O)O[C@@H]2C(=O)O)[C@@H](O)[C@@H](O)[C@@H]1O` (stereo partly drawn) [M5, mannuronate pentasaccharide (beta-D-mannuronate pentasaccharide)]: the equilibrium dissociation constant (Kd) at TM6-N4 [1] turned out to be 1.2 ± 0.6 µM.

As to `O=C(O)[C@H]1O[C@@H](O[C@H]2[C@H](O)[C@H](O)[C@H](O[C@H]3[C@H](O)[C@H](O)[C@H](O[C@H]4[C@H](O)[C@H](O)[C@H](O[C@H]5[C@H](O)[C@H](O)C(O)O[C@@H]5C(=O)O)O[C@@H]4C(=O)O)O[C@@H]3C(=O)O)O[C@@H]2C(=O)O)[C@@H](O)[C@@H](O)[C@@H]1O` (some centres unmarked) [M5, mannuronate pentasaccharide], in the assay with TM6-N4 [2], the ΔH is -8.6 ± 1.2 kcal/mol; the TΔS was -0.6 kcal/mol; the “ΔG (binding free energy change)” value is -8.1 kcal/mol and -8.1 ± 0.1 kcal/mol.

Regarding `O=C(O)[C@H]1O[C@@H](O[C@H]2[C@H](O)[C@H](O)[C@H](O[C@H]3[C@H](O)[C@H](O)[C@H](O[C@H]4[C@H](O)[C@H](O)[C@H](O[C@H]5[C@H](O)[C@H](O)[C@H](O[C@H]6[C@H](O)[C@H](O)C(O)O[C@@H]6C(=O)O)O[C@@H]5C(=O)O)O[C@@H]4C(=O)O)O[C@@H]3C(=O)O)O[C@@H]2C(=O)O)[C@@H](O)[C@@H](O)[C@@H]1O` (stereo partly drawn) [M6, beta-D-mannuronate hexasaccharide (hexamannuronate)], the affinity on TM6-N4 [1], expressed as Kd, was 0.06 ± 0.06 µM.

For `O=C(O)[C@H]1O[C@@H](O[C@H]2[C@H](O)[C@H](O)[C@H](O[C@H]3[C@H](O)[C@H](O)[C@H](O[C@H]4[C@H](O)[C@H](O)[C@H](O[C@H]5[C@H](O)[C@H](O)[C@H](O[C@H]6[C@H](O)[C@H](O)C(O)O[C@@H]6C(=O)O)O[C@@H]5C(=O)O)O[C@@H]4C(=O)O)O[C@@H]3C(=O)O)O[C@@H]2C(=O)O)[C@@H](O)[C@@H](O)[C@@H]1O` (some centres unmarked) [M6], in the assay on TM6-N4 [2], the ΔH is -3.5 ± 0.3 kcal/mol; the TΔS is recorded as 6.4 kcal/mol; the “ΔG (binding free energy change)” value was -9.9 kcal/mol and -9.9 ± 0.1 kcal/mol.

For the compound `O=C(O)[C@H]1O[C@@H](O[C@H]2[C@H](O)[C@H](O)[C@H](O[C@H]3[C@H](O)[C@H](O)[C@H](O[C@H]4[C@H](O)[C@H](O)[C@H](O[C@H]5[C@H](O)[C@H](O)[C@H](O[C@H]6[C@H](O)[C@H](O)[C@H](O[C@H]7[C@H](O)[C@H](O)C(O)O[C@@H]7C(=O)O)O[C@@H]6C(=O)O)O[C@@H]5C(=O)O)O[C@@H]4C(=O)O)O[C@@H]3C(=O)O)O[C@@H]2C(=O)O)[C@@H](O)[C@@H](O)[C@@H]1O` (stereo partly drawn) [M7, beta-D-mannuronate heptasaccharide (heptamannuronate)], the Kd at TM6-N4 [1] came out at 0.2 ± 0.1 µM.

As to `O=C(O)[C@H]1O[C@@H](O[C@H]2[C@H](O)[C@H](O)[C@H](O[C@H]3[C@H](O)[C@H](O)[C@H](O[C@H]4[C@H](O)[C@H](O)[C@H](O[C@H]5[C@H](O)[C@H](O)[C@H](O[C@H]6[C@H](O)[C@H](O)[C@H](O[C@H]7[C@H](O)[C@H](O)C(O)O[C@@H]7C(=O)O)O[C@@H]6C(=O)O)O[C@@H]5C(=O)O)O[C@@H]4C(=O)O)O[C@@H]3C(=O)O)O[C@@H]2C(=O)O)[C@@H](O)[C@@H](O)[C@@H]1O` (some centres unmarked) [M7], in the assay on TM6-N4 [2], the ΔH is -4.2 ± 0.8 kcal/mol; the TΔS is listed as 5.2 kcal/mol; the “ΔG (binding free energy change)” value is -9.3 kcal/mol and -9.3 ± 0.1 kcal/mol.

Values taken from publication PMC9971899, “Identification and structural analysis of a carbohydrate-binding module specific to alginate, a representative of a new family, CBM96” (The Journal of Biological Chemistry, 2022).
